Laboratory results from the Kinase Knowledgebase extract (Sharma et al. 2016).

Tests used:
Test in all cases: Enzyme Assay
[1] = target: PIK3CB (Human) (UniProt P42338)
[2] = target: PIK3CG (human) (UniProt P48736)
[3] = target: PIK3CD (Human) (UniProt O00329)
[4] = target: PIK3CA (human) (UniProt P42336)
PIK3CA (human), sequence (P42336 whole entry, looked up): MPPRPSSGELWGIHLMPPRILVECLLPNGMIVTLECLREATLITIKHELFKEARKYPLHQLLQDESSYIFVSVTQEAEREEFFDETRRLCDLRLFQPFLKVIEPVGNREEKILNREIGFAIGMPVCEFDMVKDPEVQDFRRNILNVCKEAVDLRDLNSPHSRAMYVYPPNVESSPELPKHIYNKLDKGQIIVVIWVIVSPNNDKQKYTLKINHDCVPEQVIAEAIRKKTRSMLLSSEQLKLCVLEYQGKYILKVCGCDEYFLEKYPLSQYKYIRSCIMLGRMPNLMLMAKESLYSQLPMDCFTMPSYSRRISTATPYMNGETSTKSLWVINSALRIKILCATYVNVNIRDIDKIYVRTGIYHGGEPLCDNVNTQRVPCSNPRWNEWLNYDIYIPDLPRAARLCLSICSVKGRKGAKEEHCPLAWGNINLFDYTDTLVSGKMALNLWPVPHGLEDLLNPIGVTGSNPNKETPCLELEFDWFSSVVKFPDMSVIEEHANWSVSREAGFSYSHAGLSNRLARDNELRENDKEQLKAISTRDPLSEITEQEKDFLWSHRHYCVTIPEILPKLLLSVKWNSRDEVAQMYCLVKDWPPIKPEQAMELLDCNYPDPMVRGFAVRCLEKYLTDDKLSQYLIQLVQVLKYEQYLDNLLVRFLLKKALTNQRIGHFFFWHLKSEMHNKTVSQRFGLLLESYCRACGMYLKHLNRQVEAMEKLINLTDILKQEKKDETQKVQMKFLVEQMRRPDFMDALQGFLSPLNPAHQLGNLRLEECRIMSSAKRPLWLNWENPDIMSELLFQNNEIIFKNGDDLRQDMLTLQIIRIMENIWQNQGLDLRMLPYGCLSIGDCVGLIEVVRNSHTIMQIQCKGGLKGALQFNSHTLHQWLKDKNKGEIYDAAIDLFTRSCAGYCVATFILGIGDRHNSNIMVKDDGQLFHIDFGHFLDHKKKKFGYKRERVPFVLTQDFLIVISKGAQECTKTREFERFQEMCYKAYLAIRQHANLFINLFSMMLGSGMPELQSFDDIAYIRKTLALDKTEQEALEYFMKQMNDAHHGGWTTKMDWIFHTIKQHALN

PIK3CG (human), sequence (P48736 whole entry, looked up): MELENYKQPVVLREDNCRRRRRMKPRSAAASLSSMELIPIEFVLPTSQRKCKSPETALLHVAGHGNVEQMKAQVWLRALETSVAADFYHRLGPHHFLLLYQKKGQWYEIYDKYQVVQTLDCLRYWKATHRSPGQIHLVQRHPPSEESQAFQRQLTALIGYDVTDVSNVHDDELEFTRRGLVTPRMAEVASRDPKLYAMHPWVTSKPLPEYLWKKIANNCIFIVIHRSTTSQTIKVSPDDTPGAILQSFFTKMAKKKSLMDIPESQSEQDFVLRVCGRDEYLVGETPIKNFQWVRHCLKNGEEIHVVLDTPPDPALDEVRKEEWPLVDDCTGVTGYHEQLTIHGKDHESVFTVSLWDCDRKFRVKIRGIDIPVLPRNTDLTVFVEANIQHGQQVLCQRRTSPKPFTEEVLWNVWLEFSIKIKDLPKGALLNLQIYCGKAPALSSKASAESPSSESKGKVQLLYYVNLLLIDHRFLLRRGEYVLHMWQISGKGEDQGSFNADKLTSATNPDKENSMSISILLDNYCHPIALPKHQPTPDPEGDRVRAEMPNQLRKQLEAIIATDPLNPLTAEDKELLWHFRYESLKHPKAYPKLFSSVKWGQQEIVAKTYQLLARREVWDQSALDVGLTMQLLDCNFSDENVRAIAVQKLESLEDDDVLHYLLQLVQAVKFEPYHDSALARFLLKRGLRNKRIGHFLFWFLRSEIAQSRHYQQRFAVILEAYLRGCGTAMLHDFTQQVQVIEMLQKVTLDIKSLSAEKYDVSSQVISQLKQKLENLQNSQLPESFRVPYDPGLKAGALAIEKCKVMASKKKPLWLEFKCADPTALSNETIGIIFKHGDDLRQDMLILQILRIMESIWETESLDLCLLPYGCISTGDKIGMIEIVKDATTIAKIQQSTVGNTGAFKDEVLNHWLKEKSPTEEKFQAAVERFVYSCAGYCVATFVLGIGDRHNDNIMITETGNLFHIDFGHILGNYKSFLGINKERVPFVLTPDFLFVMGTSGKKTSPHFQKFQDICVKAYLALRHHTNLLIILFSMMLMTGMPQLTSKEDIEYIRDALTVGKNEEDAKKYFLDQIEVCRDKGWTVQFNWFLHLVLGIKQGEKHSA
PIK3CB (Human), sequence (P42338 whole entry, looked up): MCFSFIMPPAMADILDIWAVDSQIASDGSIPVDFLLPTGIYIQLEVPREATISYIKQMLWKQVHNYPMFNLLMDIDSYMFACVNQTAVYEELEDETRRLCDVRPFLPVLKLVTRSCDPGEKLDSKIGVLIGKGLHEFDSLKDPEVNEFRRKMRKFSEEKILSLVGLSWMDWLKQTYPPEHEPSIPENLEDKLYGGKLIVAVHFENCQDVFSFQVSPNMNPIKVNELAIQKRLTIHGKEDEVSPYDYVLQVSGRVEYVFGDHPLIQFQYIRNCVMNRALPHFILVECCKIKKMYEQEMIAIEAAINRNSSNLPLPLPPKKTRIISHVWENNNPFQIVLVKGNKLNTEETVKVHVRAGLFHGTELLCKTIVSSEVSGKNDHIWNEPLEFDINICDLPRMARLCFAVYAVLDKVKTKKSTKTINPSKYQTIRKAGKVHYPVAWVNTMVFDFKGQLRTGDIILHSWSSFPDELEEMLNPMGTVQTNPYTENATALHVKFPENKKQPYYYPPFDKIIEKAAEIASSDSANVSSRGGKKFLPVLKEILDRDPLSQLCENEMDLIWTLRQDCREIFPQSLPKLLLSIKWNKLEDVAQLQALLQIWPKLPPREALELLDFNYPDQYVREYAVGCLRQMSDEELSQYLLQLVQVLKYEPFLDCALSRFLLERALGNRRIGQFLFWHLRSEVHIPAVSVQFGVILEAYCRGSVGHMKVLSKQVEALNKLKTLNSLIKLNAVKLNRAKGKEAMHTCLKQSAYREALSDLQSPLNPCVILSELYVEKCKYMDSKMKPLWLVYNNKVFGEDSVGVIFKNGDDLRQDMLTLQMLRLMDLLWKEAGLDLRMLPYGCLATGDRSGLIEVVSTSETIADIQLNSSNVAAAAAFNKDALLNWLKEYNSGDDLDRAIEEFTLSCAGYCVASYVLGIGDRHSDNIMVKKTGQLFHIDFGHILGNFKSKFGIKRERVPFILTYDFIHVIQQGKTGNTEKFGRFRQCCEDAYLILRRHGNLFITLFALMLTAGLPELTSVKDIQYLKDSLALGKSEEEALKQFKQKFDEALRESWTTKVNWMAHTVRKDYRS
PIK3CD (Human), sequence (O00329 whole entry, looked up): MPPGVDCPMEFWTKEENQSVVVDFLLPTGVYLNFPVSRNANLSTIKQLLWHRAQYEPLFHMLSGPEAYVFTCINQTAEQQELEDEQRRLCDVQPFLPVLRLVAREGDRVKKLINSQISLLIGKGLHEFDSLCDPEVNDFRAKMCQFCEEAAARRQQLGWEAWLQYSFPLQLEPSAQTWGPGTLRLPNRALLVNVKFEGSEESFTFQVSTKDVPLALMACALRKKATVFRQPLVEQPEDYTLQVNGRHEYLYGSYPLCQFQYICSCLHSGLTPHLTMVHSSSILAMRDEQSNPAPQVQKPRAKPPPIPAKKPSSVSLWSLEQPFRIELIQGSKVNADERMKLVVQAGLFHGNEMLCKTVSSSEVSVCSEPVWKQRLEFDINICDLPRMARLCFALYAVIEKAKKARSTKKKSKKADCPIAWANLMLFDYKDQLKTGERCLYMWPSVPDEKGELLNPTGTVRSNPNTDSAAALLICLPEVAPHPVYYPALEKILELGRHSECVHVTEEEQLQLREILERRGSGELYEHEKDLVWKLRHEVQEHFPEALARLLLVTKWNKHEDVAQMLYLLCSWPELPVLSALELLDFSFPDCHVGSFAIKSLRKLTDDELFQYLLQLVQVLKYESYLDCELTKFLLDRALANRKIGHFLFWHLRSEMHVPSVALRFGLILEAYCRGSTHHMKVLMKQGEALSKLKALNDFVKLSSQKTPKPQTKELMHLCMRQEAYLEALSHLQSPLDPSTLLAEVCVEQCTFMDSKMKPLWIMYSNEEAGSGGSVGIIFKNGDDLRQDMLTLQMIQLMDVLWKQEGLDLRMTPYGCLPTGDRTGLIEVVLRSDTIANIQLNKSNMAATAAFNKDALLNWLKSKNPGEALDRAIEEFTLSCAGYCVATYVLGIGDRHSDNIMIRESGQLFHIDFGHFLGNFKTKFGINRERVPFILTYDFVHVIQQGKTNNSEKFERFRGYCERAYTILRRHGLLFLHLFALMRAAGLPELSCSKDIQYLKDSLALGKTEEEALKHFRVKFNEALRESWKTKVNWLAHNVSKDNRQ

Row | SMILES | IC50 [1] | IC50 [2] | IC50 [3] | IC50 [4]
1 | Cc1cccc2cc([C@H](C)Nc3nc(F)nc4[nH]cnc34)n(C3CC3)c(=O)c12 | < 100 nM | 100 to 1000 nM | < 100 nM | 
2 | Cc1cccc2cc([C@H](C)Nc3nc(N)ncc3F)n(-c3ccccc3)c(=O)c12 | > 10000 nM | 100 to 1000 nM | < 100 nM | > 10000 nM
3 | Cc1cccc2cc(C(C)Nc3ncnc4[nH]cnc34)n(-c3cc(F)cc(F)c3)c(=O)c12 (centres undefined) | > 10000 nM | 100 to 1000 nM | < 100 nM | > 10000 nM
4 | Cc1ccccc1-n1c(Cn2nc(C#CC3CC3)c3c(N)ncnc32)cc2cccc(C)c2c1=O | > 10000 nM | 100 to 1000 nM | 100 to 1000 nM | > 10000 nM
5 | Cc1cccc2cc(C(C)Nc3ncnc4[nH]cnc34)n(-c3c(F)cccc3F)c(=O)c12 (centres undefined) | > 10000 nM | 100 to 1000 nM | < 100 nM | > 10000 nM
6 | Cc1cccc(C)c1-n1c(CNc2ncnc3[nH]cnc23)cc2cccc(C)c2c1=O | > 10000 nM | 100 to 1000 nM | < 100 nM | > 10000 nM
7 | Cc1cccc2cc([C@H](C)Nc3nc(N)ncc3Cl)n(C3CC3)c(=O)c12 | 100 to 1000 nM | 100 to 1000 nM | < 100 nM | > 10000 nM
8 | Cc1ccccc1-n1c(Cn2nc(C=CC(=O)N3CCOCC3)c3c(N)ncnc32)cc2cccc(C)c2c1=O | > 10000 nM | > 10000 nM | 100 to 1000 nM | > 10000 nM
9 | Cc1cccc2cc([C@H](C)Nc3nc(Cl)nc4[nH]cnc34)n(C3CC3)c(=O)c12 | < 100 nM | 100 to 1000 nM | < 100 nM | > 10000 nM
10 | Cc1cccc2cc([C@H](C)Nc3ncnc4ccccc34)n(-c3ccccc3)c(=O)c12 | > 10000 nM | 100 to 1000 nM | < 100 nM | > 10000 nM
11 | Cc1cccc2cc([C@H](C)Nc3cc(N)nc(N)n3)n(-c3ccccc3)c(=O)c12 | > 10000 nM | 100 to 1000 nM | 100 to 1000 nM | > 10000 nM
12 | CC(=O)Nc1nc2cc(-c3nn(Cc4cc5cccc(C)c5c(=O)n4-c4ccccc4)c4ncnc(N)c34)ccc2s1 | > 10000 nM | 100 to 1000 nM | 100 to 1000 nM | > 10000 nM
13 | Cc1cccc2cc([C@H](C)Nc3ncnc4[nH]nc(Cl)c34)n(C3CC3)c(=O)c12 | 100 to 1000 nM | 100 to 1000 nM | < 100 nM | > 10000 nM
14 | Cc1cccc2cc(Cn3nc(-c4cnn(CCO)c4)c4c(N)ncnc43)n(-c3ccccc3F)c(=O)c12 | > 10000 nM | 100 to 1000 nM |  | > 10000 nM
